Reference: patent US20020054941A1, “Methods and compositions to enhance tenderness and value of meat” (The Board of Regents of the University of Nebraska, priority 2000, published 2002)
Marks after values point to notes of the source that are not given here.

Columns and labels:
[1] = system: triceps brachii beef muscles; experiment: Muscle pH, pre-rigor injection of whole muscle; conditions: 200 mM, calcium chloride 300 mM; for pH, 0 h: 0 h (before injection); for pH, 24 h: 24 h after injection; for pH, 72 h: 72 h after injection
Description: (§1) Experiment were conducted to test the effects of pre-rigor injection of several compounds. Effects of these compounds on pH, color, tenderness and other related traits of low-value beef cuts were investigated. Ten steers (22 to 24 mo of age, 515 to 676 kg live weight) were slaughtered according to current industry procedures. Pre-rigor semimembranosus (from the round), triceps brachii and supraspinatus muscles (from the chuck) were excised, after evisceration (approximately 1 hour post-mortem), from both sides of the carcass. Muscle sections were randomly assigned to the treatments: sodium citrate (NaC; 200 mM), sodium fluoride (NaF; 200 mM), sodium acetate (NaA; 200 mM), and calcium chloride (CaCl2; 300 mM). The control samples remained on the carcass at 2° C. for 24 hours to simulate commercial conditions. Following a cooling, control muscles were removed from each carcass (4 replicates), vacuum packaged and transferred to the holding cooler with the other cuts at 2° C. Calcium chloride treatment was included to be compared with the other treatments.
(§2) At 2 hours post-mortem, each muscle was injected with a volume equal to 8% of the muscle weight using a four-needle hand injector. The temperature of solutions were 4° C. Each muscle was individually treated (2% of solution was added to give a total of 10% of muscle weight) and tumbled in a 75-pound capacity tumbler (Röschermatic, Oshabrück, Germany) for 30 min to insure uniform distribution of the solution.
(§3) Samples of each muscle (approximately 100 g) were taken at 0 hour (before injection), 24, and 72 hours after injection for determination of pH, oxidation-reduction potential, glycogen content, R-values, NAD, and NADH. The samples were then immediately frozen in liquid nitrogen and stored at −80° C. until they were powdered and analyzed. Fresh muscle samples (approximately 20 g) were taken at 72 hours after injection and assayed immediately for water holding capacity and sarcomere length.
(§4) Duplicate pre-rigor samples (5 g) were weighed from powdered sample and homogenized (Polytron, Brinkman Instruments, New York, N.Y.) in 50 mL of 5 mM iodoacetic acid, 150 mM potassium chloride (pH 7.0, 24° C.) to stop glycolysis (Ahn et al., 1992). The pH of the suspension was measured with a general purpose electrode (Corning Glass Works, Corning, N.Y.) attached to an Orion Model SA 720 pH meter (Orion Research, Inc., Boston, Mass.). Post-rigor muscle pH was determined by homogenizing 5 g of sample in 50 mL of deionized water (Winger et al., 1979).

[2] = system: supraspinatus beef muscles; experiment: Muscle pH, pre-rigor injection of whole muscle; conditions: for pH, 0 h: 0 h (before injection); for pH, 24 h / pH, 72 h: 200 mM, calcium chloride 300 mM
Description: as §1, §2, §3, §4

[3] = system: semimembranosus beef muscles; experiment: Muscle pH, pre-rigor injection of whole muscle; conditions: for pH, 0 h: 0 h (before injection); for pH, 24 h / pH, 72 h: 200 mM, calcium chloride 300 mM
Description: as §1, §2, §3, §4

[4] = system: triceps brachii beef muscles; experiment: Warner-Bratzler shear force, pre-rigor injection of whole muscle; conditions: 200 mM, calcium chloride 300 mM; for Shear force, 3 d: 3 d postmortem; for Shear force, 7 d: 7 d postmortem; for Shear force, 14 d: 14 d postmortem
Description: as §1, §2
(§5) Tenderness of samples was evaluated by measuring Warner-Bratzler shear force. Steaks (2.54-cm thick) from the middle of each muscle were cut and frozen at 3, 7 and 14 days postmortem. Frozen steaks (2.54 cm thick) were thawed at 4° C. for 24 hours and cooked on Farberware Open Hearth Broilers (Model 350A Walter Kidde, Bronx, N.Y.) to an internal temperature of 40° C., turned, and cooked to a final internal temperature of 70° C. (AMSA, 1995). Temperature was monitored using an OMEGA thermocouple thermometer type T (Omega Engineering, Inc., Stamford, Conn.) inserted into the geometric center of a steak. The cooked steaks were chilled 2 hours at 2° C., and then 8 cores (1.27-cm diameter) were removed parallel to the muscle fiber orientation. Cores were sheared once each on an Instron Universal Testing Machine model 55R1123 (Instron, Canton, Mass.) with a Warner-Braztler attachment. The Instron was set up with a 500 kg load cell, full scale load=1 (0-10 kg), and crosshead speed=250 mm/mim.

[5] = system: supraspinatus beef muscles; experiment: as above; conditions: 200 mM; for Shear force, 3 d: 3 d postmortem; for Shear force, 3 d / Shear force, 7 d: calcium chloride 300 mM; for Shear force, 7 d: 7 d postmortem; for reduced shear force compared with controls: supraspinatus, 3 days post-mortem, CaCl2 300 mM
Description: as §1, §2, §5

[6] = system: semimembranosus beef muscles; experiment: as above; conditions: 200 mM, calcium chloride 300 mM; for Shear force, 3 d: 3 d postmortem; for Shear force, 7 d: 7 d postmortem; for Shear force, 14 d: 14 d postmortem
Description: as §1, §2, §5

[7] = system: triceps brachii beef muscles; experiment: Glycogen content, pre-rigor injection of whole muscle; conditions: 200 mM, calcium chloride 300 mM; for Glycogen, 0 h: 0 h (before injection)
Description: as §1, §2, §3
(§6) Glycogen extraction was performed in duplicate with 3 g of frozen-powdered muscle sample, which was homogenized with 0.6 N perchloric acid. Amylo-α-1,4-α-1,6- glucosidase from Aspergillus niger (No. A3514. Sigma Chemical, St. Louis, Mo.) was used for the breakdown of the glycogen molecules to free glucose following the method described by Roehrig and Allred (1974). Homogenate was incubated for 2 hours at 37° C., then 100 μL of 3 N perchloric acid was added to precipitate the proteins. After centrifugation, the supernatant was stored at 0-4° C., until analyzed, which was within 2 weeks.
(§7) The assay for glucose was run as described by Dalrymple and Hamm (1973) and Roehrig and Allred (1974), using glucose-6-phosphate dehydrogenase (No. G8878. Sigma Chemical, St. Louis, Mo.) and hexokinase (No. H5500. Sigma Chemical, St. Louis, Mo.). Briefly, the method involves an exoglucosidase, Amylogucosidase, from Aspergillus niger which hydrolyses the -α-D-(1-4) and -α-D-(1-6)-linkages of glycogen. The glucose formed is specifically determined with hexokinase and glucose-6-phosphate dehydrogenase. The glucose liberated after hydrolysis of glycogen is proportional to the increase of absorbance measured at 340 nm. Fifty μL of sample was incubated with 1 mL ATP, NADP, Glucose-6-phosphate dehydrogenase buffer and 5 μL hexokinase at 37° C. for 15 min. Absorbance was measured at 340 nm wavelength, light path=1 cm. The muscle glycogen content was calculated with the following formula: Glycogen (μmol glucose/g wet muscle weight)=111.882×absorbance. 111.882 is the dilution factor.

[8] = system: supraspinatus beef muscles; experiment: as above; conditions: for Glycogen, 0 h: 0 h (before injection); for Glycogen, 24 h / Glycogen, 72 h: 200 mM, calcium chloride 300 mM
Description: as §1, §2, §3, §6, §7

[9] = system: semimembranosus beef muscles; experiment: as above; conditions: for Glycogen, 0 h: 0 h (before injection); for Glycogen, 24 h / Glycogen, 72 h: 200 mM, calcium chloride 300 mM
Description: as §1, §2, §3, §6, §7

[10] = system: sternomandibularis beef muscles; experiment: pH of pre-rigor injected sectioned muscle; conditions: injection 10% of muscle weight, 200 mM (glucose, calcium chloride 300 mM)
Description: (§8) Pre-rigor beef muscle was sectioned and the sections were injected at approximately 1 hour post-mortem with a volume of treatment solution equal to 10% of the muscle weight. Objective color measurements were taken on pieces of each muscle section and the pieces were then frozen, powdered and stored at −80° C. for up to 10 days before testing pH and analyzing oxidation-reduction potential. Shear force was evaluated as described immediately above. Solutions used in this procedure were as follows: sodium citrate (200 mM), sodium acetate (200 mM), glucose (300 mM), calcium citrate (200 mM), calcium chloride (300 mM), injection with water, and no injection (control). The calcium citrate solution was prepared as a suspension using 0.25% carrageenan and 200 mM calcium citrate due to its insolubility in water. However, use of calcium citrate can be optimized by increasing solubility by means known in the art.

[11] = system: sternomandibularis beef muscles; experiment: Shear force of pre-rigor injected sectioned muscle; conditions: 200 mM (glucose, calcium chloride 300 mM)
Description: Pre-rigor beef muscle was sectioned into 100 g. samples at approximately 3 hours post-mortem. The pieces were injected with 10 mL of treatment solution followed by marination in the solution for 24 hours at 2° C. before testing pH and recording visual color of the muscle sections. For evaluation of shear force, samples were thawed, cooked, sliced (approximately 6 mm by 6 mm) and then cooled before readings were taken. The solutions used for this procedure were as described above for homogenized muscle.
as §8

Row | Structure (SMILES) | pH, 0 h [1] | pH, 24 h [1] | pH, 72 h [1] | pH, 0 h [2] | pH, 24 h [2] | pH, 72 h [2] | pH, 0 h [3] | pH, 24 h [3] | pH, 72 h [3] | Shear force, 3 d [4] | Shear force, 7 d [4] | Shear force, 14 d [4] [kg] | Shear force, 3 d [5] | Shear force, 7 d [5] | Shear force, 3 d [6] [kg] | Shear force, 7 d [6] [kg] | Shear force, 14 d [6] [kg] | Glycogen, 0 h [7] [μmol/g muscle] | Glycogen, 24 h [7] | Glycogen, 72 h [7] | further results
1 | [F-].[Na+] [Sodium fluoride, sodium fluoride, reference compound] | 6.76 | 6.07^a | 5.95^a | 6.72 | 6.23^a | 6.09^a | 6.70 | 6.08^a | 5.97^a | 5.18^bc kg | 4.82^b kg | 4.09 | 6.13^bc kg | 4.80^b kg | 6.02 | 5.56 | 4.60 | 48.22 | 43.98^a μmol/g muscle | 37.30^a μmol/g muscle | reduced shear force compared with controls [5]: 1.15 kg; Glycogen, 0 h [8]: 45.49 μmol/g muscle; Glycogen, 24 h [8]: 37.37 μmol/g muscle; Glycogen, 72 h [8]: 30.46^a μmol/g muscle; Glycogen, 0 h [9]: 62.90 μmol/g muscle; Glycogen, 24 h [9]: 54.03^b μmol/g muscle; Glycogen, 72 h [9]: 43.77^a μmol/g muscle
2 | CC(=O)[O-].[Na+] [Sodium acetate, sodium acetate] | 6.78 | 5.80^b | 5.48^c | 6.81 | 5.85^c | 5.64^c | 6.75 | 5.70^b | 5.38^d | 6.47^a kg | 5.96^a kg | 4.67 | 7.85^a kg | 6.95^a kg | 6.61 | 5.78 | 5.08 | 49.53 | 28.74^b μmol/g muscle | 27.22^b μmol/g muscle | Shear force, 7 d ([5]; listed as NaA): significant increase in shear force; PH (0 h) [10]: 6.86; pH, 72 h [10]: 5.80^cd; Shear force, kg (72 h) [11]: 9.88^ab kg; Glycogen, 0 h [8]: 42.83 μmol/g muscle; Glycogen, 24 h [8]: 24.43 μmol/g muscle; Glycogen, 72 h [8]: 18.10^b μmol/g muscle; Glycogen, 0 h [9]: 64.24 μmol/g muscle; Glycogen, 24 h [9]: 40.88^b μmol/g muscle; Glycogen, 72 h [9]: 28.64^b μmol/g muscle
3 | [Ca+2].[Cl-].[Cl-] [Calcium chloride, calcium chloride, reference compound] | 6.77 | 5.84^b | 5.67^b | 6.75 | 5.88^c | 5.54^c | 6.76 | 5.77^b | 5.60^c | 4.95^bc kg | 4.87^b kg | 4.07 | 5.55^c kg | 4.84^b kg | 6.28 | 5.36 | 4.03 | 39.14 | 28.76^b μmol/g muscle | 25.01^bc μmol/g muscle | reduced shear force compared with controls [5]: 1.73 kg; PH (0 h) [10]: 6.77; pH, 72 h [10]: 5.88^d; Shear force, kg (72 h) [11]: 6.61^a kg; Glycogen, 0 h [8]: 37.98 μmol/g muscle; Glycogen, 24 h [8]: 26.75 μmol/g muscle; Glycogen, 72 h [8]: 19.31^b μmol/g muscle; Glycogen, 0 h [9]: 58.18 μmol/g muscle; Glycogen, 24 h [9]: 45.90^ab μmol/g muscle; Glycogen, 72 h [9]: 37.10^ab μmol/g muscle
4 | O=C([O-])CC(O)(CC(=O)[O-])C(=O)[O-].O=C([O-])CC(O)(CC(=O)[O-])C(=O)[O-].[Ca+2].[Ca+2].[Ca+2] [Calcium citrate, calcium citrate] |  |  |  |  |  |  |  |  |  |  |  |  |  |  |  |  |  |  |  |  | PH (0 h) [10]: 6.92; pH, 72 h [10]: 5.82^cd; Shear force, kg (72 h) [11]: 7.57^a kg
